The values below come from PubChem BioAssay (NCI).

Where “and” joins values, the source holds several entries; their conditions need not be identical. Identical values can stand only once.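 Assay format: 96-well plates, 48-hour exposure. Abbreviation: GI50, concentration required for 50% inhibition of growth. The concentration for full growth arrest is given as TGI.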

What is called TGI is the concentration at which net growth stops. Read a low TGI as greater sensitivity of the cells. The term GI50 denotes the concentration giving 50% growth inhibition.

Test systems include SF-268 CNS; EKVX NSCLC; HT29 colon; U251 CNS; CCRF-CEM leukemia; SN12C renal; HOP-92 NSCLC; NCI-H23 lung; LOX IMVI melanoma; SK-OV-3 ovarian.
Holding throughout (assay): DTP human tumour cell line panel, 48 h

As to `CN(C)CCC1(C2=CCCC2)CC/C(=C\c2ccccc2)C1=O` (stereo not given), the concentration for total growth inhibition (TGI) in the experiment with SF-268 CNS was determined as 42.2 µM; with EKVX NSCLC, 25.7 µM; with HT29 colon, 34.4 µM; in the experiment on U251 CNS, 30.3 µM; in the experiment with CCRF-CEM leukemia, 50.3 µM; in the experiment with SN12C renal, 31.1 µM. For the same compound, the results for the TGI in the experiment on HOP-92 NSCLC, with NCI-H23 lung and with LOX IMVI melanoma were 45.6 µM, 46.9 µM and 31.3 µM, respectively.
On to `CC1=NN(C(=O)Cc2ccccc2)C(=O)/C1=C\c1ccco1`, for which the TGI in the experiment on SF-268 CNS, in the experiment with EKVX NSCLC, with HT29 colon, in the experiment with CCRF-CEM leukemia, with SN12C renal and in the experiment on NCI-H23 lung was > 100 µM throughout. Also, the TGI in the experiment on LOX IMVI melanoma was > 100 µM.
With `BrC12c3ccccc3Sc3ccccc3C1(Br)c1ccccc12` (stereo not given), the TGI in the experiment on SF-268 CNS was > 100 µM; with HT29 colon, > 100 µM; in the experiment with U251 CNS, 33.7 µM; in the experiment with CCRF-CEM leukemia, 50.1 µM; in the experiment on SK-OV-3 ovarian it was > 100 µM; in the experiment with SN12C renal it was 76.6 µM. For the same compound, the TGI turned out to be 60.5 µM with HOP-92 NSCLC and 29.7 µM in the experiment with LOX IMVI melanoma.
As for `COc1cc([C@@H]2c3cc4c(c(O)c3C[C@H]3COC(=O)[C@@H]32)OCO4)cc(OC)c1O`, the GI50 is 0.0043 µM in the experiment on SF-268 CNS; 0.0182 µM with HT29 colon; 0.00228 µM and < 0.02 µM in the experiment with U251 CNS; 0.00337 µM and 0.02 µM with CCRF-CEM leukemia; 0.00372 µM in the experiment on SN12C renal; 0.00576 µM in the experiment with HOP-92 NSCLC. For the same compound, the GI50 in the experiment with LOX IMVI melanoma is 0.00394 µM and 0.0367 µM. The TGI in the experiment with SF-268 CNS is > 200 µM; in the experiment with EKVX NSCLC, > 92.8 µM; with HT29 colon, 1.53 µM; in the experiment with U251 CNS it was 0.00608 µM and < 0.02 µM; with CCRF-CEM leukemia, > 35.6 µM; with SN12C renal, 0.431 µM. Moreover, the total growth inhibition concentration (TGI) in the experiment with HOP-92 NSCLC is 0.113 µM; in the experiment on NCI-H23 lung it was 0.637 µM; with LOX IMVI melanoma it was > 200 µM.
Regarding `CCN(CC)c1nc(N(C)C)c2cc(OC)ccc2n1`, the TGI in the experiment with SF-268 CNS is 91.8 µM; in the experiment on EKVX NSCLC, > 100 µM; with HT29 colon it was > 100 µM; in the experiment with U251 CNS, > 100 µM; with SN12C renal, 89.3 µM; in the experiment on HOP-92 NSCLC, > 100 µM. Further, the TGI with NCI-H23 lung and in the experiment on LOX IMVI melanoma was > 100 µM each time.
Turning to `COc1cc(OC)nc(Nc2c(C#N)c3nc4ccccc4n3c3ccccc23)n1`, the concentration for total growth inhibition (TGI) in the experiment on SF-268 CNS, with EKVX NSCLC, in the experiment with HT29 colon, with U251 CNS, with CCRF-CEM leukemia and in the experiment on SK-OV-3 ovarian was > 100 µM throughout. Also, the TGI with NCI-H23 lung and with LOX IMVI melanoma was > 100 µM throughout.
On to `S=C(Nc1ccccc1)N1N=C2c3ccccc3CC[C@H]2[C@@H]1c1ccccc1`, for which the TGI in the experiment on SF-268 CNS, with EKVX NSCLC, in the experiment on HT29 colon, in the experiment with U251 CNS, with SK-OV-3 ovarian and in the experiment with SN12C renal was > 100 µM in each case. In addition, the TGI in the experiment with NCI-H23 lung and in the experiment with LOX IMVI melanoma was > 100 µM in each case.
For the compound `CCc1n[nH]c(=O)n1NC(=O)/C=C\C(=O)O`, the TGI in the experiment on SF-268 CNS, in the experiment with EKVX NSCLC, with HT29 colon, in the experiment with U251 CNS, with CCRF-CEM leukemia and with SK-OV-3 ovarian was > 100 µM throughout. Moreover, the TGI in the experiment with SN12C renal and in the experiment with NCI-H23 lung was > 100 µM each time.
`O=c1/c(=C/c2ccc3c(c2)OCO3)sc2nnc(-c3ccco3)n12`: the TGI in the experiment on SF-268 CNS, in the experiment with EKVX NSCLC, in the experiment with U251 CNS, in the experiment on CCRF-CEM leukemia, in the experiment on SK-OV-3 ovarian and with SN12C renal was > 100 µM in each case. In addition, the TGI with NCI-H23 lung and with LOX IMVI melanoma was > 100 µM each time.
Regarding `Cc1cc(NCCCCCCNc2cc(C)nc3ccc(Cl)cc23)c2cc(Cl)ccc2n1`, the TGI with SF-268 CNS is 32.5 µM; in the experiment on EKVX NSCLC, 30.4 µM; in the experiment with HT29 colon, 33.5 µM; with U251 CNS, 30.6 µM; in the experiment on CCRF-CEM leukemia, 83.6 µM; in the experiment on SK-OV-3 ovarian, > 100 µM. For the same compound, the TGI was found to be 47.2 µM in the experiment on SN12C renal, 30.7 µM in the experiment with NCI-H23 lung and 28.7 µM in the experiment with LOX IMVI melanoma.
In the case of `O=C(Nc1c(Cl)cc([N+](=O)[O-])cc1Cl)/C(=N\Nc1cccc(Cl)c1)c1c(O)c2ccccc2oc1=O`, the total growth inhibition concentration (TGI) in the experiment with SF-268 CNS, with EKVX NSCLC, in the experiment with HT29 colon, in the experiment on CCRF-CEM leukemia, in the experiment with SK-OV-3 ovarian and with SN12C renal was > 100 µM in each case. Besides, in the experiment with NCI-H23 lung, the concentration for total growth inhibition (TGI) is > 100 µM.
For the compound `CC[C@@]1(O)C(=O)OCc2c1cc1n(c2=O)Cc2c-1nc1ccccc1c2/C=N\NC(=O)C(C)N` (stereo not given in full), the TGI was > 100 µM in the experiment on SF-268 CNS; > 100 µM in the experiment with EKVX NSCLC; > 47.1 µM in the experiment with HT29 colon; 31.6 µM with U251 CNS; 11.1 µM in the experiment on SN12C renal; 7.7 µM in the experiment with HOP-92 NSCLC. The TGI with NCI-H23 lung turned out to be 0.847 µM; in the experiment with LOX IMVI melanoma it was 0.229 µM.
As to `CCSc1nc2n(c(=S)n1)CCN2C`, the concentration for total growth inhibition (TGI) with SF-268 CNS stood at 65.8 µM; in the experiment with EKVX NSCLC, 69.6 µM; with HT29 colon it was 37.2 µM; with U251 CNS it was 41.2 µM; in the experiment with SK-OV-3 ovarian, 50.2 µM; with SN12C renal it was 47.8 µM. Also, the TGI in the experiment on LOX IMVI melanoma came to 34.8 µM.
For `CN(C(=O)c1cccs1)C(=S)N1CCN(c2ccccc2)CC1`, the TGI in the experiment on SF-268 CNS, with HT29 colon, in the experiment with U251 CNS, with CCRF-CEM leukemia, in the experiment with SN12C renal and in the experiment on HOP-92 NSCLC was > 100 µM in each case. The TGI in the experiment with NCI-H23 lung and in the experiment on LOX IMVI melanoma was > 100 µM each time.
On to `C/C(=N/N)c1ccc2[nH]c3c(C)cc([N+](=O)[O-])c(C)c3c2c1`, for which the TGI is 60.4 µM with SF-268 CNS; 66.1 µM in the experiment with EKVX NSCLC; 90.1 µM with HT29 colon; 30.1 µM with CCRF-CEM leukemia; 15.8 µM in the experiment with SN12C renal; 19.5 µM in the experiment with LOX IMVI melanoma.
